Tests used:
[1] = system: HUVEC; experiment: In vitro flow chamber: T cell-rolling and adhesion on HUVEC, long-term conditions; format: cell-based, human; conditions: non-stimulated HUVEC, 40 min
Description: (§1) Human brain microvascular endothelial cells (HBMEC) (#1000, Sciencell Research Laboratories) or human umbilical vein endothelial cells (HUVEC) (#C-12200, Promocell) were used as endothelial cell-model. Cryopreserved HBMEC at passage 1 (>5×10^5 cells/ml) were first cultivated in fibronectin-coated Nunclon-treated 75 cm^2 cell culture flasks (#156499, Nunc) at 37° C. and 5% CO2 in a Heraeus Cytoperm 2 (Thermo Scientific) according to the manufacturer's instructions. Sub-cultivation of HBMEC was done with the Detach Kit (#C-41200, Promocell) consisting of HEPES-buffered balanced salt solution (#C-40000, Promocell), trypsin-EDTA solution (0.04%/0.03%) (#C-41000, Promocell) and trypsin neutralization solution (TNS, #C-41100, Promocell). Briefly, the medium was aspirated from the HBMEC-layer and cells were washed with 2 ml of HEPES-buffered balanced salt solution. Addition of 2 ml of trypsin-EDTA solution for 1-5 min at room temperature led to detachment of HBMEC from the flask bottom. Inactivation of trypsin-EDTA solution was performed by addition of 2 ml of trypsin neutralization solution to the cell suspension. Cells were centrifuged at 300 g for 4 min in a Heraeus Megafuge 40 (Thermo Scientific) and seeded at a cell density of 5×10^5 cells per gelatin-coated 75 cm^2 cell culture flask (#L7230, Biochrom). HBMEC for rolling and adhesion experiments were cultivated in RPMI 1640 medium (#FG1215, Biochrom) supplemented with Nu-Serum IV (10%) (#355505, BD Biosciences), dialyzed FBS (10%) (#SZ0115, Biochrom), MEM-vitamins (1%) (#K0373, Biochrom), L-glutamine (1%) (#K0283, Biochrom), sodium-pyruvate (1%) (#L0473, Biochrom), heparin (10 U/ml) (#L6510, Biochrom), and […] cell growth factor ECGS (30 μg/ml) (#02-102, Millipore). Cultivation of HUVEC was done in endothelial cell growth medium (#C-22010, Promocell) supplemented with dialyzed FBS (10%) (#SZ0115, Biochrom) using gelatin-coated 75 cm^2 cell culture flasks. Sub-cultivation of HUVEC was performed with the Detach Kit ([…], Promocell) and cells were seeded at a cell density of 4.0-7.5×10^5 cells per 75 cm^2 cell culture flask.
Isolation of human PBMC from blood was performed by modified density gradient centrifugation as described elsewhere. Briefly, 15-20 ml of freshly drawn heparinized blood was transferred in Biocoll (#L6115, Biochrom)-containing Leukosep tubes (#227290, Greiner bio-one) and centrifuged in a Hettich Rotanta 460 RS Type 5606 (Hettich Laborapparate) at 1066 g for 15 min. After removal of the plasma fraction the PBMC containing phase was transferred in a new tube and washed twice with FACS-buffer (D-PBS #L1820, 5% FBS #SO115, Biochrom). Erythrocyte lysis was performed with lysis buffer (8.29 g/l NH4Cl, 1.00 g/l KHCO3, 0.037 g/l EDTA) for 5 min at room temperature. […]

[2] = cited from earlier work
[3] = system: stroke patients; conditions: iv, for several days; equivalent to 700 mg per os; cited from earlier work
[4] = system: HBMEC; experiment: In vitro flow chamber: T cell-rolling on HBMEC, long-term conditions; format: cell-based, human
Description: as §1
Isolation of human PBMC from blood was performed by modified density gradient centrifugation as described elsewhere. Briefly, 15-20 ml of freshly drawn heparinized blood was transferred in Biocoll (#L6115, Biochrom)-containing Leukosep tubes (#227290, Greiner bio-one) and centrifuged in a Hettich Rotanta 460 RS Type 5606 (Hettich Laborapparate) at 1066 g for 15 min. After removal of the plasma fraction the PBMC containing phase was transferred in a new tube and washed twice with FACS-buffer (D-PBS #L1820, 5% FBS #SO115, Biochrom). Erythrocyte lysis was performed with lysis buffer (8.29 g/l NH4Cl, 1.00 g/l KHCO3, 0.037 g/l EDTA) for 5 min at room temperature. For subsequent purification of untouched T cells the human Pan T cell-isolation Kit II (#130-091-156, Miltenyi Biotec) was used according to the manufacturer's instructions.
The ibidi Pump System (#10902, ibidi) was used for cultivation of endothelial cells under flow conditions as well as for performing adhesion and rolling assays of human T cells on endothelial cells. The system consists of the ibidi Pump (#10905, ibidi) and the ibidi Fluidic Unit (#10903, ibidi) which work together to generate a unidirectional flow of medium in an attached slide with a defined channel height. The system is controlled by the ibidi Pump Control software (#10908, notebook+software, ibidi). For cultivation of HBMEC or HUVEC under flow conditions, HBMEC or HUVEC were seeded at a cell density of 2.5×10^6 cells/ml into μ-slide I^0.4 Luer Collagen IV (#80172, ibidi) or μ-slide I^0.4 Luer ibiTreat (#80176, ibidi), respectively according to the manufacturer's instructions and cultivated with a perfusion set “yellow/green” (#10964, ibidi) for 48 h under wall shear stress of 5 or 10 dyn/cm^2, respectively. […]

[5] = system: patients; experiment: Phase 1 clinical study: Blinatumomab with PPS co-medication; format: in vivo, human
Description: In a phase 1 clinical study three patients were treated with Blinatumomab at an initial dose of 5 μg/m^2/day for 1 week followed by a dose escalation to 60 μg/m^2/day for additional 3 to 7 weeks.

[6] = pH 6; cited from earlier work

CN(C)c1ccc(O)c2c1C[C@H]1C[C@H]3[C@H](N(C)C)C(O)=C(C(N)=O)C(=O)[C@@]3(O)C(O)=C1C2=O [minocycline, Minocycline]
mean T cell-rolling velocity±SD ([1]; +AMG 103 10 ng/ml, T cells pre-incubated with 50 μg/ml minocycline): 217±92 μm/sec
mean T cell-rolling velocity±SD ([1]; −AMG 103, +minocycline 50 μg/ml): 233±29 μm/sec
bioavailability ([2]; after oral administration): ~100%
in vivo half-life ([2]; in vivo): approximately 24 hours
daily doses found to be safe and well-tolerated [3]: up to 10 mg/kg

natalizumab: antibody approved for the treatment of multiple sclerosis; binds to VLA-4 on T cells [reference compound]
mean T cell-rolling velocity±SD ([4]; non-stimulated HBMEC, +AMG 103 10 ng/ml, T cells pre-incubated with 1 μg/ml natalizumab, 40 min): 444±110 μm/sec
mean T cell-rolling velocity±SD ([4]; non-stimulated HBMEC, −AMG 103, +natalizumab 1 μg/ml, 40 min): 445±81 μm/sec

β1→4-D-Xylan-2,3-bis(hydrogen sulfate) [PPS, reference compound]
T cell-counts in peripheral blood vs baseline, 45 minutes after start of infusion or stepwise dose increase ([5]; all three patients with PPS co-medication): no decline of T cell-counts
T cell-redistribution kinetics ([5]; all three patients with intravenous PPS, absence of CD19-positive target cells): delayed T cell-redistribution kinetics
earliest detection of decreased T cell-counts in peripheral blood after start of infusion or stepwise dose increase of Blinatumomab ([5]; intervention with intravenous PPS): ≥ 2 h
discontinuation of Blinatumomab treatment due to neurological adverse effects ([5]; three patients with intravenous PPS at start of infusion and dose step, high risk (low B:T cell-ratios)): none of these three patients had to discontinue treatment
mean T cell-rolling velocity±SD ([4]; histamine-stimulated HBMEC, +AMG 103 10 ng/ml, +PPS 200 μg/ml, 45 min): 483±157 μm/sec
mean T cell-rolling velocity±SD ([4]; histamine-stimulated HBMEC, −AMG 103, +PPS 200 μg/ml, 45 min): 442±156 μm/sec
mean T cell-rolling velocity±SD ([4]; non-stimulated HBMEC, +AMG 103 10 ng/ml, +PPS 200 μg/ml, 40 min): 465±116 μm/sec
mean T cell-rolling velocity±SD ([4]; non-stimulated HBMEC, −AMG 103, +PPS 200 μg/ml, 40 min): 514±159 μm/sec
solubility in water [6]: 50%

From patent US9688760B2, “Anti-leukocyte adhesion for the mitigation of potential adverse events caused by CD3-specific binding domains” (AMGEN RESEARCH (MUNICH) GMBH, priority 2013, dated 2017)
